Data as given in the NIST ThermoML archive (doi:10.1016/j.jct.2016.09.005).
Numbers after ± are expanded uncertainties.

Conditions: Brillouin Light Scattering

CC(C)OC(C)C [diisopropyl ether]
Conditions	speed of sound [m/s]
432.85 K, 1000 kPa, Liquid	434.31 ± 6.1
433.18 K, 2500 kPa, Liquid	464.16 ± 6.5
433.27 K, 4000 kPa, Liquid	498.85 ± 7
437.97 K, 5500 kPa, Liquid	515.55 ± 7.4
438.45 K, 8500 kPa, Liquid	566.84 ± 8.1
438.48 K, 10000 kPa, Liquid	599.89 ± 8.5
438.69 K, 7000 kPa, Liquid	537.87 ± 7.6
438.94 K, 2500 kPa, Liquid	440.93 ± 6.2
439.03 K, 4000 kPa, Liquid	475.92 ± 6.7
442.55 K, 7000 kPa, Liquid	521.69 ± 7.4
442.6 K, 4000 kPa, Liquid	461.81 ± 6.5
442.85 K, 8500 kPa, Liquid	551.1 ± 7.9
442.96 K, 10000 kPa, Liquid	583.95 ± 8.3
443.09 K, 5500 kPa, Liquid	494.52 ± 7.1
443.48 K, 2500 kPa, Liquid	424.11 ± 6
447.46 K, 2500 kPa, Liquid	407.02 ± 5.8
447.46 K, 10000 kPa, Liquid	569.2 ± 8.2
447.74 K, 5500 kPa, Liquid	476.22 ± 6.9
448.06 K, 8500 kPa, Liquid	530.98 ± 7.6
448.43 K, 4000 kPa, Liquid	436.29 ± 6.2
448.7 K, 7000 kPa, Liquid	505.01 ± 7.2
453.11 K, 2500 kPa, Liquid	380.57 ± 5.4
453.12 K, 5500 kPa, Liquid	456.86 ± 6.7
453.5 K, 4000 kPa, Liquid	418.12 ± 6
453.57 K, 10000 kPa, Liquid	548.35 ± 7.8
453.75 K, 8500 kPa, Liquid	518.95 ± 7.4
454.24 K, 7000 kPa, Liquid	488.02 ± 7
457.15 K, 2500 kPa, Liquid	366.77 ± 5.2
457.57 K, 10000 kPa, Liquid	539.84 ± 7.7
457.63 K, 8500 kPa, Liquid	503.76 ± 7.2
457.7 K, 7000 kPa, Liquid	475.35 ± 6.8
457.87 K, 4000 kPa, Liquid	397.64 ± 5.7
458.03 K, 5500 kPa, Liquid	440.35 ± 6.5
462.93 K, 4000 kPa, Liquid	377.89 ± 5.4
463.16 K, 7000 kPa, Liquid	457.86 ± 6.7
463.6 K, 8500 kPa, Liquid	488.56 ± 7
463.85 K, 10000 kPa, Liquid	521.08 ± 7.5
463.88 K, 2500 kPa, Liquid	338.04 ± 4.9
464.11 K, 5500 kPa, Liquid	418.4 ± 6.2
467.52 K, 5500 kPa, Liquid	406.91 ± 6.1
467.53 K, 10000 kPa, Liquid	508.72 ± 7.3
467.58 K, 7000 kPa, Liquid	440.63 ± 6.4
467.74 K, 8500 kPa, Liquid	473.19 ± 6.8
468.21 K, 4000 kPa, Liquid	357.71 ± 5.2
472.64 K, 8500 kPa, Liquid	459.74 ± 6.7
472.67 K, 7000 kPa, Liquid	424.62 ± 6.3
472.84 K, 5500 kPa, Liquid	384.97 ± 5.8
472.94 K, 4000 kPa, Liquid	339.72 ± 4.9
473.24 K, 10000 kPa, Liquid	491.15 ± 7.1
505.6 K, 3500 kPa, Fluid (supercritical or subcritical phases)	132.11 ± 4
505.8 K, 4500 kPa, Fluid (supercritical or subcritical phases)	215.46 ± 4.1
506.21 K, 5500 kPa, Fluid (supercritical or subcritical phases)	263.63 ± 5.2
506.39 K, 6500 kPa, Fluid (supercritical or subcritical phases)	301.19 ± 5.3
509.39 K, 3500 kPa, Fluid (supercritical or subcritical phases)	114.34 ± 3.7
509.87 K, 4500 kPa, Fluid (supercritical or subcritical phases)	196.58 ± 3.9
510.29 K, 5500 kPa, Fluid (supercritical or subcritical phases)	244.35 ± 5
510.5 K, 6500 kPa, Fluid (supercritical or subcritical phases)	281.9 ± 5.2
516.22 K, 3500 kPa, Fluid (supercritical or subcritical phases)	102.13 ± 2.8
516.95 K, 6500 kPa, Fluid (supercritical or subcritical phases)	262.61 ± 5.4
517.48 K, 4500 kPa, Fluid (supercritical or subcritical phases)	161.27 ± 3.4
518.73 K, 5500 kPa, Fluid (supercritical or subcritical phases)	206.26 ± 5
519.67 K, 3500 kPa, Fluid (supercritical or subcritical phases)	108 ± 2.3
520.35 K, 4500 kPa, Fluid (supercritical or subcritical phases)	144.87 ± 3
521.7 K, 5500 kPa, Fluid (supercritical or subcritical phases)	199.75 ± 5.1
522.21 K, 6500 kPa, Fluid (supercritical or subcritical phases)	243.32 ± 5.1
526.46 K, 3500 kPa, Fluid (supercritical or subcritical phases)	116.09 ± 1.9
527.21 K, 4500 kPa, Fluid (supercritical or subcritical phases)	126.63 ± 2.4
528.59 K, 5500 kPa, Fluid (supercritical or subcritical phases)	173.63 ± 4.9
529.79 K, 6500 kPa, Fluid (supercritical or subcritical phases)	222.12 ± 5.2
532.59 K, 4500 kPa, Fluid (supercritical or subcritical phases)	114.85 ± 2
533.14 K, 5500 kPa, Fluid (supercritical or subcritical phases)	166.48 ± 4.7
533.59 K, 6500 kPa, Fluid (supercritical or subcritical phases)	210.67 ± 4.8
534.66 K, 4500 kPa, Fluid (supercritical or subcritical phases)	113.71 ± 1.9
535.53 K, 5500 kPa, Fluid (supercritical or subcritical phases)	159.52 ± 4.5
536.07 K, 6500 kPa, Fluid (supercritical or subcritical phases)	205.77 ± 4.8
536.58 K, 3500 kPa, Fluid (supercritical or subcritical phases)	132.72 ± 2.2
540.66 K, 4500 kPa, Fluid (supercritical or subcritical phases)	121.9 ± 2
541.18 K, 5500 kPa, Fluid (supercritical or subcritical phases)	155.19 ± 3.7

speed of sound [m/s]
Conditions	443.46 K	453.54 K	457.54 K	463 K	468.31 K	473.8 K	478.69 K	483.1 K	487.42 K	492.48 K
Gas	140.99 ± 2.5	135.34 ± 2.4	131.58 ± 2.4	125.98 ± 2.3	121.95 ± 2.2	115.5 ± 2.1	108.41 ± 2	103.7 ± 2	98.66 ± 1.9	91.71 ± 1.8
Liquid	384.46 ± 5.4	336.71 ± 4.8	315.85 ± 4.5	290.41 ± 4.1	263.51 ± 3.8	237.38 ± 3.4	210.25 ± 3.1	185.8 ± 2.8	162.27 ± 2.5	135.68 ± 2.1
